Test results reported in patent US8987195B2 (priority 2012, dated 2015).
Like-named read-outs stand apart in the source and are kept apart here.

Experiments:
[1] = target: HCV NS3/4A protease genotype 1b (Hepatitis C virus genotype 1b, UniProt P26663); experiment: HCV NS3/4A protease time-resolved fluorescence (TRF) assay, Ki against genotype 1b; format: biochemical; conditions: IC50 [gt-1b], NS3/4A protease TRF assay, genotype 1b enzyme 0.2 nM
In short: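 Ki was converted from fitted IC50 using IC50=Ki(1+[S]/KM) and 25 nM substrate. Protease (genotype 1b 0.2 nM, A156T 0.4 nM, 3a 0.025 nM) and compound were pre-mixed 30 min in pH 7.5 HEPES/NaCl/glycerol/DTT buffer. Cleavage then proceeded 2.5 h at room temperature, detected by time-resolved europium fluorescence (340/615 nm).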

HCV genotype 1b replicon = experiment: HCV replicon assay, genotype 1b replicon EC50; format: cell-based, Hepatitis C virus; conditions: Hepatitis C virus, HCV replicon, genotype 1b, read-out: EC50 [gt-1b]
In short: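 Readout was replicon RNA copy number, by 32P-probe protection or TaqMan normalized to cellular cyclophilin A RNA, or luciferase activity for luciferase:Neo^r fusion lines. Cells were exposed to serially diluted compound for 24-48 hours without G418, then washed and lysed. EC50 derived from four-parameter fit relative to DMSO.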

SMILES	IC50 ([1]; K+ salt) [nM]	EC50 (HCV genotype 1b replicon; K+ salt) [nM]	IC50 [1] [nM]	EC50 (HCV genotype 1b replicon) [nM]
COc1ccc2nc(C3CC3)c3c(c2c1)[C@H](F)C[C@]1(C[C@H]2C(=O)N[C@]4(C(=O)NS(=O)(=O)C5(C)CC5)C[C@H]4/C=C\CCCCC[C@H](NC(=O)OCC(C)C)C(=O)N2C1)O3 [Example 454, 2-methylpropyl [(1′R,2S,6S,12Z,13aS,14aR,16aS)-5′-cyclopropyl-1′-fluoro-9′-methoxy-14a-{[(1-methylcyclopropyl)sulfonyl]carbamoyl}-5,16-dioxo-1,1′,2′,5,6,7,8,9,10,11,13a,14,14a,15,16,16a-hexadecahydrospiro[cyclopropa[e]pyrrolo[1,2-a][1,4]diazacyclopentadecine-2,3′-pyrano[2,3-c]quinolin]-6-yl]carbamate]	0.024	1.38	–	–
COc1ccc2nc(C3CC3)c3c(c2c1)[C@H](F)C[C@]1(C[C@H]2C(=O)N[C@]4(C(=O)NS(=O)(=O)C5(C)CC5)C[C@H]4/C=C\CCCCC[C@H](NC(=O)OCC(C)(C)C)C(=O)N2C1)O3 [Example 455, 2,2-dimethylpropyl [(1′R,2S,6S,12Z,13aS,14aR,16aS)-5′-cyclopropyl-1′-fluoro-9′-methoxy-14a-{[(1-methylcyclopropyl)sulfonyl]carbamoyl}-5,16-dioxo-1,1′,2′,5,6,7,8,9,10,11,13a,14,14a,15,16,16a-hexadecahydrospiro[cyclopropa[e]pyrrolo[1,2-a][1,4]diazacyclopentadecine-2,3′-pyrano[2,3-c]quinolin]-6-yl]carbamate]	0.04	1.55	–	–
COc1ccc2nc(C3CC3)c3c(c2c1)[C@H](F)C[C@]1(C[C@H]2C(=O)N[C@]4(C(=O)NS(=O)(=O)C5(C)CC5)C[C@H]4/C=C\CCCCC[C@H](NC(=O)OC(C)C)C(=O)N2C1)O3 [Example 456, propan-2-yl [(1′R,2S,6S,12Z,13aS,14aR,16aS)-5′-cyclopropyl-1′-fluoro-9′-methoxy-14a-{[(1-methylcyclopropyl)sulfonyl]carbamoyl}-5,16-dioxo-1,1′,2′,5,6,7,8,9,10,11,13a,14,14a,15,16,16a-hexadecahydrospiro[cyclopropa[e]pyrrolo[1,2-a][1,4]diazacyclopentadecine-2,3′-pyrano[2,3-c]quinolin]-6-yl]carbamate]	0.021	1.41	–	–
COc1ccc2nc(C3CC3)c3c(c2c1)[C@H](F)C[C@]1(C[C@H]2C(=O)N[C@]4(C(=O)NS(=O)(=O)C5(C)CC5)C[C@H]4/C=C\CCCCC[C@H](NC(=O)O[C@H](C)C(C)C)C(=O)N2C1)O3 [Example 457, (2R)-3-methylbutan-2-yl [(1′R,2S,6S,12Z,13aS,14aR,16aS)-5′-cyclopropyl-1′-fluoro-9′-methoxy-14a-{[(1-methylcyclopropyl)sulfonyl]carbamoyl}-5,16-dioxo-1,1′,2′,5,6,7,8,9,10,11,13a,14,14a,15,16,16a-hexadecahydrospiro[cyclopropa[e]pyrrolo[1,2-a][1,4]diazacyclopentadecine-2,3′-pyrano[2,3-c]quinolin]-6-yl]carbamate]	0.068	1.17	–	–
CC(C)(C)OC(=O)N[C@H]1CCCCC/C=C\[C@@H]2C[C@@]2(C(=O)NS(=O)(=O)C2(C)CC2)NC(=O)[C@@H]2C[C@]3(CCc4c(c(C(F)(F)F)nc5ccc(OCF)cc45)O3)CN2C1=O [Example 458, tert-butyl [(2R,6S,12Z,13aS,14aR,16aS)-9′-(fluoromethoxy)-14a-{[(1-methylcyclopropyl)sulfonyl]carbamoyl}-5,16-dioxo-5′-(trifluoromethyl)-1,1′,2′,5,6,7,8,9,10,11,13a,14,14a,15,16,16a-hexadecahydrospiro[cyclopropa[e]pyrrolo[1,2-a][1,4]diazacyclopentadecine-2,3′-pyrano[2,3-c]quinolin]-6-yl]carbamate]	–	–	0.015	1.43
COc1ccc2nc(C(F)(F)F)c3c(c2c1)[C@H](F)C[C@]1(C[C@H]2C(=O)N[C@]4(C(=O)NS(=O)(=O)C5(C)CC5)C[C@H]4/C=C\CCCCC[C@H](NC(=O)OCC(C)(C)C)C(=O)N2C1)O3 [Example 462, 2,2-dimethylpropyl [(1′R,2S,6S,12Z,13aS,14aR,16aS)-1′-fluoro-9′-methoxy-14a-{[(1-methylcyclopropyl)sulfonyl]carbamoyl}-5,16-dioxo-5′-(trifluoromethyl)-1,1′,2′,5,6,7,8,9,10,11,13a,14,14a,15,16,16a-hexadecahydrospiro[cyclopropa[e]pyrrolo[1,2-a][1,4]diazacyclopentadecine-2,3′-pyrano[2,3-c]quinolin]-6-yl]carbamate]	–	–	0.036	5.75
COc1ccc2nc(C)c3c(c2c1)CC[C@]1(C[C@H]2C(=O)N[C@]4(C(=O)NS(=O)(=O)C5(C)CC5)C[C@H]4/C=C\CCCCC[C@H](Nc4cccc(C)n4)C(=O)N2C1)O3 [Example 463, (2R,6S,12Z,13aS,14aR,16aS)-9′-methoxy-5′-methyl-N-[(1-methylcyclopropyl)sulfonyl]-6-[(6-methylpyridin-2-yl)amino]-5,16-dioxo-1,1′,2′,6,7,8,9,10,11,13a,14,15,16,16a-tetradecahydrospiro[cyclopropa[e]pyrrolo[1,2-a][1,4]diazacyclopentadecine-2,3′-pyrano[2,3-c]quinoline]-14a(5H)-carboxamide]	–	–	0.057	2.16
Cc1nc2cc(F)ccc2c2c1OC1(CC2F)C[C@H]2C(=O)N[C@]3(C(=O)NS(=O)(=O)C4(C)CC4)C[C@H]3/C=C\CCCCC[C@H](NC(=O)OC(C)(C)C)C(=O)N2C1 (stereo partly drawn) [Example 464, tert-butyl [(6S,12Z,13aS,14aR,16aS)-1′,8′-difluoro-5′-methyl-14a-{[(1-methylcyclopropyl)sulfonyl]carbamoyl}-5,16-dioxo-1,1′,2′,5,6,7,8,9,10,11,13a,14,14a,15,16,16a-hexadecahydrospiro[cyclopropa[e]pyrrolo[1,2-a][1,4]diazacyclopentadecine-2,3′-pyrano[2,3-c]quinolin]-6-yl]carbamate]	–	–	1.03	15
CCc1nc2ccc(OC)cc2c2c1O[C@]1(CC2)C[C@H]2C(=O)N[C@]3(C(=O)NS(=O)(=O)C4(C)CC4)C[C@H]3/C=C\CCCCC[C@H](NC(=O)c3ccc(C)s3)C(=O)N2C1 [Example 466, (2R,6S,12Z,13aS,14aR,16aS)-5′-ethyl-9′-methoxy-N-[(1-methylcyclopropyl)sulfonyl]-6-{[(5-methylthiophen-2-yl)carbonyl]amino}-5,16-dioxo-1,1′,2′,6,7,8,9,10,11,13a,14,15,16,16a-tetradecahydrospiro[cyclopropa[e]pyrrolo[1,2-a][1,4]diazacyclopentadecine-2,3′-pyrano[2,3-c]quinoline]-14a(5H)-carboxamide]	–	–	0.041	1.62
CCc1nc2ccc(OC)cc2c2c1O[C@]1(CC2)C[C@H]2C(=O)N[C@]3(C(=O)NS(=O)(=O)C4(C)CC4)C[C@H]3/C=C\CCCCC[C@H](NC(=O)c3ccn(CC)n3)C(=O)N2C1 [Example 467, (2R,6S,12Z,13aS,14aR,16aS)-5′-ethyl-6-{[(1-ethyl-1H-pyrazol-3-yl)carbonyl]amino}-9′-methoxy-N-[(1-methylcyclopropyl)sulfonyl]-5,16-dioxo-1,1′,2′,6,7,8,9,10,11,13a,14,15,16,16a-tetradecahydrospiro[cyclopropa[e]pyrrolo[1,2-a][1,4]diazacyclopentadecine-2,3′-pyrano[2,3-c]quinoline]-14a(5H)-carboxamide]	–	–	0.028	4.71
CCc1nc2ccc(OC)cc2c2c1O[C@]1(CC2)C[C@H]2C(=O)N[C@]3(C(=O)NS(=O)(=O)C4(C)CC4)C[C@H]3/C=C\CCCCC[C@H](NC(=O)c3ccn(C(F)F)n3)C(=O)N2C1 [Example 468, (2R,6S,12Z,13aS,14aR,16aS)-6-({[1-(difluoromethyl)-1H-pyrazol-3-yl]carbonyl}amino)-5′-ethyl-9′-methoxy-N-[(1-methylcyclopropyl)sulfonyl]-5,16-dioxo-1,1′,2′,6,7,8,9,10,11,13a,14,15,16,16a-tetradecahydrospiro[cyclopropa[e]pyrrolo[1,2-a][1,4]diazacyclopentadecine-2,3′-pyrano[2,3-c]quinoline]-14a(5H)-carboxamide]	–	–	0.031	7.15
CCc1nc2ccc(OC)cc2c2c1O[C@]1(CC2)C[C@H]2C(=O)N[C@]3(C(=O)NS(=O)(=O)C4(C)CC4)C[C@H]3/C=C\CCCCC[C@H](NC(=O)c3cc[nH]n3)C(=O)N2C1 [Example 469, (2R,6S,12Z,13aS,14aR,16aS)-5′-ethyl-9′-methoxy-N-[(1-methylcyclopropyl)sulfonyl]-5,16-dioxo-6-[(1H-pyrazol-3-ylcarbonyl)amino]-1,1′,2′,6,7,8,9,10,11,13a,14,15,16,16a-tetradecahydrospiro[cyclopropa[e]pyrrolo[1,2-a][1,4]diazacyclopentadecine-2,3′-pyrano[2,3-c]quinoline]-14a(5H)-carboxamide]	–	–	0.016	48.8
CCc1nc2ccc(OCCN3CCOCC3)cc2c2c1O[C@]1(CC2)C[C@H]2C(=O)N[C@]3(C(=O)NS(=O)(=O)C4(C)CC4)C[C@H]3/C=C\CCCCC[C@H](NC(=O)OC(C)(C)C)C(=O)N2C1 [Example 470, tert-butyl {(2R,6S,12Z,13aS,14aR,16aS)-5′-ethyl-14a-{[(1-methylcyclopropyl)sulfonyl]carbamoyl}-9′-[2-(morpholin-4-yl)ethoxy]-5,16-dioxo-1,1′,2′,5,6,7,8,9,10,11,13a,14,14a,15,16,16a-hexadecahydrospiro[cyclopropa[e]pyrrolo[1,2-a][1,4]diazacyclopentadecine-2,3′-pyrano[2,3-c]quinolin]-6-yl}carbamate]	–	–	0.011	5.74
